From PubChem BioAssay AID330 (DTP/NCI, 2004)
Where “and” joins values, the source holds several entries; their conditions need not be identical. Equal values may be shown once. Toxic doses and inconclusive results are not listed. Rule for the calls: active = survival T/C of 150% or more; inactive = T/C below 125% in these data.

Tested on: P388 leukemia ip, CD2F1 mice, survival T/C
Experiment: NCI In Vivo Anticancer Drug Screen. Data for tumor model P388 Leukemia (intraperitoneal) in CD2F1 (CDF1) mice
Settings: endpoint: median survival time, higher = longer survival
Procedure, shortened: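 Mice carrying the transplanted tumor received test compound or vehicle. Survival was recorded in each group, and the value is the treated-group measurement divided by that of the vehicle-treated control group.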

[1] = dose: 50.0 mg/kg/injection, schedule: Q01DX005 (ip), vehicle: saline with Tween-80
[2] = dose: 100.0 mg/kg/injection, schedule: Q01DX005 (ip), vehicle: saline with Tween-80
[3] = dose: 200.0 mg/kg/injection, schedule: Q01DX005 (ip), vehicle: saline with Tween-80
[4] = dose: 50.0 mg/kg/injection, schedule: Q01DX005 (ip), vehicle: Klucel (hydroxypropylcellulose) (HPC)
[5] = dose: 100.0 mg/kg/injection, schedule: Q01DX005 (ip), vehicle: Klucel (hydroxypropylcellulose) (HPC)
[6] = dose: 200.0 mg/kg/injection, schedule: Q01DX005 (ip), vehicle: Klucel (hydroxypropylcellulose) (HPC)
[7] = dose: 100.0 mg/kg/injection, schedule: Q04DX003 (ip), vehicle: saline with Tween-80
[8] = dose: 200.0 mg/kg/injection, schedule: Q04DX003 (ip), vehicle: saline with Tween-80
[9] = dose: 400.0 mg/kg/injection, schedule: Q04DX003 (ip), vehicle: saline with Tween-80
[10] = dose: 12.5 mg/kg/injection, schedule: Q01DX009 (ip), vehicle: Klucel (hydroxypropylcellulose) (HPC)
[11] = dose: 25.0 mg/kg/injection, schedule: Q01DX009 (ip), vehicle: Klucel (hydroxypropylcellulose) (HPC)
[12] = dose: 50.0 mg/kg/injection, schedule: Q01DX009 (ip), vehicle: Klucel (hydroxypropylcellulose) (HPC)
[13] = dose: 100.0 mg/kg/injection, schedule: Q01DX009 (ip), vehicle: Klucel (hydroxypropylcellulose) (HPC)
[14] = dose: 60.0 mg/kg/injection, schedule: Q01DX005 (ip), vehicle: saline with Tween-80
[15] = dose: 120.0 mg/kg/injection, schedule: Q01DX005 (ip), vehicle: saline with Tween-80

Measured: T/C

CC(=O)OCC1OC(n2cc(CI)nn2)C(OC(C)=O)C(OC(C)=O)C1OC(C)=O (stereo not drawn)
inactive: dose: 6.25 mg/kg/injection, schedule: Q01DX009 (ip), vehicle: distilled water + Tween-80 102 % of control and 103 % of control | dose: 12.5 mg/kg/injection, schedule: Q01DX009 (ip), vehicle: distilled water + Tween-80 103 % of control and 96 % of control | dose: 25.0 mg/kg/injection, schedule: Q01DX009 (ip), vehicle: distilled water + Tween-80 111 % of control and 115 % of control | dose: 50.0 mg/kg/injection, schedule: Q01DX009 (ip), vehicle: distilled water + Tween-80 102 % of control and 115 % of control | dose: 100.0 mg/kg/injection, schedule: Q01DX009 (ip), vehicle: distilled water + Tween-80 115 % of control

Cc1cc(O)c(C=Nc2ccccc2C)c(=O)o1
inactive: [1] 102 % of control | [2] 103 % of control | [3] 105 % of control

Cc1nc2ccccc2c(=O)n1/N=C/c1ccc(Cl)cc1Cl
inactive: [1] 92 % of control | [2] 100 % of control

NC(=O)N/N=C1/CCC(OC(=O)c2ccccc2)CC1CC(=O)O (stereo not drawn)
inactive: [1] 100 % of control | [2] 100 % of control | [3] 100 % of control

c1ccc(N=C(Nc2ccccc2)C(=Nc2ccccc2)Nc2ccccc2)cc1
inactive: [4] 100 % of control | [5] 96 % of control | [6] 98 % of control

CCC1(C)CCC(C)(CC)c2c(C)cc(C(C)=O)cc21 (stereo not drawn)
inactive: [7] 114 % of control | [8] 97 % of control | [9] 92 % of control

Nc1nc(=S)c2[nH]c(N=Nc3ccc(S(=O)(=O)O)cc3)nc2[nH]1
inactive: dose: 6.25 mg/kg/injection, schedule: Q04DX003 (ip), vehicle: saline 123 % of control

COc1cc2c(cc1OC)C(C)=NCC2
inactive: dose: 25.0 mg/kg/injection, schedule: Q01DX001 (ip), vehicle: saline 104 % of control | dose: 50.0 mg/kg/injection, schedule: Q01DX001 (ip), vehicle: saline 95 % of control | dose: 100.0 mg/kg/injection, schedule: Q01DX001 (ip), vehicle: saline 94 % of control | dose: 200.0 mg/kg/injection, schedule: Q01DX001 (ip), vehicle: saline 98 % of control

O=C(NN1C(=O)C=C(O)/C1=C\c1ccccc1)c1ccccc1
inactive: dose: 25.0 mg/kg/injection, schedule: Q01DX005 (ip), vehicle: Klucel (hydroxypropylcellulose) (HPC) 99 % of control and 104 % of control | [4] 101 % of control and 104 % of control and 111 % of control | [5] 103 % of control and 105 % of control (2×) | [6] 100 % of control and 105 % of control and 121 % of control

O=C(O)c1ccc(C(=O)NCCCN(CCCCN(CCCNC(=O)c2ccc(C(=O)O)c(O)c2O)C(=O)c2ccc(C(=O)O)c(O)c2O)C(=O)c2ccc(C(=O)O)c(O)c2O)c(O)c1O
inactive: dose: 50.0 mg/kg/injection, schedule: Q01DX005 (ip), vehicle: saline 99 % of control | dose: 100.0 mg/kg/injection, schedule: Q01DX005 (ip), vehicle: saline 101 % of control | dose: 200.0 mg/kg/injection, schedule: Q01DX005 (ip), vehicle: saline 99 % of control

O=c1oc(-c2cc([N+](=O)[O-])cc([N+](=O)[O-])c2Cl)nc2ccccc12
inactive: [10] 103 % of control and 110 % of control | [11] 105 % of control and 110 % of control | [12] 103 % of control and 94 % of control | [13] 105 % of control

COc1ccccc1NC(=O)Cc1nc(=O)[nH]c(=O)[nH]1
inactive: [10] 100 % of control | [11] 90 % of control | [12] 101 % of control | [13] 102 % of control | dose: 200.0 mg/kg/injection, schedule: Q01DX009 (ip), vehicle: Klucel (hydroxypropylcellulose) (HPC) 96 % of control

COC(=O)N/N=C(/CC1(O)C(=O)Nc2ccccc21)c1ccc(Cl)cc1Cl (stereo not drawn)
inactive: [1] 99 % of control | [2] 93 % of control | [3] 92 % of control

CCCCCCSc1nn(CCC#N)c(=O)[nH]c1=O
inactive: dose: 25.0 mg/kg/injection, schedule: Q01DX005 (ip), vehicle: distilled water + alcohol 103 % of control | dose: 50.0 mg/kg/injection, schedule: Q01DX005 (ip), vehicle: distilled water + alcohol 108 % of control | dose: 100.0 mg/kg/injection, schedule: Q01DX005 (ip), vehicle: distilled water + alcohol 103 % of control | dose: 200.0 mg/kg/injection, schedule: Q01DX005 (ip), vehicle: distilled water + alcohol 92 % of control

[CH3][Sn]([CH3])([Cl])[O][Sn]([CH3])([CH3])[Cl]
inactive: dose: 1.56 mg/kg/injection, schedule: Q01DX009 (ip), vehicle: saline 115 % of control | dose: 3.12 mg/kg/injection, schedule: Q01DX009 (ip), vehicle: saline 109 % of control and 118 % of control | dose: 6.25 mg/kg/injection, schedule: Q01DX009 (ip), vehicle: saline 118 % of control and 123 % of control | dose: 12.5 mg/kg/injection, schedule: Q04DX003 (ip), vehicle: saline 116 % of control | dose: 25.0 mg/kg/injection, schedule: Q04DX003 (ip), vehicle: saline 124 % of control | dose: 50.0 mg/kg/injection, schedule: Q04DX003 (ip), vehicle: saline 109 % of control

O=C(O)CC(=O)Nc1ccccc1S
inactive: dose: 50.0 mg/kg/injection, schedule: Q01DX009 (ip), vehicle: saline with Tween-80 102 % of control | dose: 100.0 mg/kg/injection, schedule: Q01DX009 (ip), vehicle: saline with Tween-80 90 % of control | dose: 200.0 mg/kg/injection, schedule: Q01DX009 (ip), vehicle: saline with Tween-80 101 % of control

Cc1cccc(C)c1NC(=O)C(=O)C(C#N)c1c(Cl)cccc1Cl (stereo not drawn)
inactive: [14] 102 % of control | [15] 102 % of control | dose: 240.0 mg/kg/injection, schedule: Q01DX005 (ip), vehicle: saline with Tween-80 104 % of control

O=C(O)COc1cc2c(cc1Cc1ccc3c(c1)OCO3)OCO2
inactive: [4] 99 % of control | [5] 96 % of control | [6] 97 % of control

Cc1ccc(OC/C=N\N=C(N)N)cc1C
inactive: [14] 101 % of control | [15] 93 % of control

CC(=O)OC(C)C(C)N(C)C (stereo not drawn)
inactive: dose: 100.0 mg/kg/injection, schedule: Q04DX003 (ip), vehicle: saline 94 % of control | dose: 200.0 mg/kg/injection, schedule: Q04DX003 (ip), vehicle: saline 101 % of control

CCC(O)C#C[Si](C)(C)C (stereo not drawn)
inactive: dose: 60.0 mg/kg/injection, schedule: Q01DX005 (ip), vehicle: saline 97 % of control | dose: 120.0 mg/kg/injection, schedule: Q01DX005 (ip), vehicle: saline 100 % of control | dose: 240.0 mg/kg/injection, schedule: Q01DX005 (ip), vehicle: saline 103 % of control

C=CCC(C(=O)OC)c1ccc(F)cc1 (stereo not drawn)
inactive: dose: 0.06 mg/kg/injection, schedule: Q01DX009 (ip), vehicle: saline 111 % of control | dose: 0.13 mg/kg/injection, schedule: Q01DX009 (ip), vehicle: saline 102 % of control | dose: 0.25 mg/kg/injection, schedule: Q01DX009 (ip), vehicle: saline 101 % of control | dose: 1.0 mg/kg/injection, schedule: Q01DX009 (ip), vehicle: saline 88 % of control

CC1(O)CC2(O)C=CC3=C(C(=O)c4cccc(O)c4C3=O)C2(O)C(=O)C1O (stereo not drawn)
inactive: dose: 0.75 mg/kg/injection, schedule: Q01DX005 (ip), vehicle: distilled water + Tween-80 + alcohol 107 % of control | dose: 1.5 mg/kg/injection, schedule: Q01DX005 (ip), vehicle: distilled water + Tween-80 + alcohol 114 % of control

CN1C(=O)C2SC(=NNc3ccccc3)SC1C(=O)N2C
inactive: [7] 106 % of control | [8] 120 % of control | [9] 100 % of control
